Data published in article PMC10046961, “High-Throughput Screening Assay for Detecting Drug-Induced Changes in Synchronized Neuronal Oscillations and Potential Seizure Risk Based on Ca^2+ Fluorescence Measurements in Human Induced Pluripotent Stem Cell (hiPSC)-Derived Neuronal 2D and 3D Cultures” (Cells, 2023).
Read-outs that look alike come from different tables or passages of the source. Marks after values point to notes of the source that are not given here.

What was measured:
[1] = ref PharmaPendium, cited from earlier work
[2] = test system: hiPSC-derived neurons co-cultured with human primary astrocytes in 2D; experiment: Ca2+ transient oscillation assay (FDSS), 2D co-culture; type: cell-based; conditions: for activation at 1.11 µM / activation at 3.33 µM / activation at 10 µM / activation at 30 µM / activation at 3.7 µM / activation at 11.11 µM / activation at 33.33 µM / activation at 100 µM: Homo sapiens, 1 h, 60 min
From the text: (§1) In this study, we used cryopreserved excitatory neurons that were differentiated from human induced pluripotent stem cells (hiPSCs; Cat #: EX-SeV-CW50065) (Elixirgen Scientific, Inc., Baltimore, MD, USA). The hiPSCs used, namely, CW50065 were derived from a healthy person and distributed by the California Institute of Regenerative Medicine Human Induced Pluripotent Stem Cell Repository. Human iPSC-derived excitatory neurons were differentiated from CW50065 using a proprietary cocktail of differentiation-inducing factors called Quick-Neuron™ EX-SeV (Batch number: EX-SeV-CW50065-L; Elixirgen Scientific, Inc.), cryopreserved 3 days after differentiation induction and distributed. Human iPSC-derived excitatory neurons were recovered from cryopreservation and maintained essentially as instructed by the manufacturer.
(§2) Cryopreserved human primary astrocytes (#N7805100, Thermo Fisher Scientific, Waltham, MA, USA) were recovered as instructed by the manufacturer and seeded in a 10 cm dish at the density of 2,000,000 cells. The culture was maintained using the Human Astrocytes Kit (#N7805200, Thermo Fisher Scientific) for 12 days. Half of the culture medium was replaced with fresh medium every 2–3 days during the culture period. These astrocytes were harvested using StemPro™ Accutase™ Cell Dissociation Reagent (#A1110501, Thermo Fisher Scientific) when they reached confluency. These cells were cryopreserved in STEM-CELLBANKER® GMP grade (ZENOGEN PHARMA, Kohriyama, Fukushima Japan) at the density of 2,000,000 cells per vial as working stocks for co-culture with neurons in 2D and 3D conditions described below. After a working stock was recovered, astrocytes were directly mixed with hiPSC-derived neurons for plating without further expansion.
Live neurons (hiPSC neurons) and human primary astrocytes were recovered from cryopreservation as described above and seeded in each well of 384-well plates at the density of 10,000 cells (HiPSC-cortical neurons) and human primary astrocytes at 2500 cells (ratio 4:1). These co-cultures were maintained under the medium conditions recommended by the manufacturer, namely Medium N(G2P), to complete the differentiation of excitatory neurons for the first week. […] Half of the culture medium was replaced with fresh medium every 3–4 days during the culture period.
After the incubation, the culture medium containing Cal-520 was replaced with 50 μL of HBSS supplemented with 0.1 mM MgCl2, 2 mM CaCl2, 10 mM HEPES, and 10 mM glucose and incubated at 37 ℃ for 15 min.
(§3) Prior to the fluorescence measurements, all wells to be measured were treated with 0.04% dimethyl sulfoxide (DMSO) to stabilize the oscillation signal. The first recording started 10 min after the addition of DMSO for each plate for 20 min. The effects of the test compound were recorded again starting 60 min after the administration of compounds, for 20 min.
Twenty-five compounds (Table 1) were first dissolved in either DMSO (most compounds) or distilled water depending on the compound, and further diluted with PBS to produce stock solutions concentrated 10-fold. […] The final concentration of DMSO was adjusted to 0.1%. Changes in the fluorescence intensity (FI) produced by Ca^2+ flux were measured at 37 °C for all wells of a 384-well plate simultaneously using the FDSS/µCell system (#C13299, Hamamatsu Photonics, Hamamatsu, Shizuoka, Japan). The excitation and the emission wavelengths were 470 nm and 540 nm, respectively. The recording duration was 20 min with a sampling frequency of 2 Hz for cells cultured under 2D conditions and 10 Hz for cells cultured under 3D conditions.

[3] = test system: hiPSC-derived neurons co-cultured with human primary astrocytes in 3D; experiment: Ca2+ transient oscillation assay (FDSS), 3D spheroids; type: cell-based; conditions: 60 min
From the text: as §1, §2
We used U-shaped-bottom 96-well plates (#174925, Thermo Fisher Scientific) without any prior coating to make a spheroid in each well. Neurons and astrocytes were seeded and maintained as described for 2D cultures, except for the following modifications. First, neurons and astrocytes were seeded in each well of the 96-well plates at the density of 8000 hiPSC neurons with 8000 human primary astrocytes (8000)/well (ratio 1:1). Second, when the differentiation of excitatory neurons was completed one week after seeding, cells were fed with BrainPhys^TM Neuronal Medium (#05793, […] Technologies, Vancouver, BC, Canada) supplemented with 2% SM1 Neuronal Supplement, 1% N2 Supplement-A, and 10% Neuron culture medium for 5 weeks.
Cells maintained as spheroids (3D) in the U-shaped-bottom 96-well plates were transferred into 384-well spheroid plates (#4516, Merck, Corning, NY, USA) with 25 µL of the culture medium. A Ca^2+-indicating dye solution including […] was prepared using the EarlyTox™ Cardiotoxicity Kit (#R8211, Molecular Devices, LLC, San Jose, CA, USA) according to the manufacturer. Then, the same volume of the dye solution was dispensed into each well.
as §3
Twenty-five compounds (Table 1) were first dissolved in either DMSO (most compounds) or distilled water depending on the compound, and further diluted with PBS to produce stock solutions concentrated 10-fold. Then, 5 μL of each compound solution was injected into each well using an automatic pipetting robot (#4505, ASSIST PLUS pipetting robot, Integra Biosciences Corp., Hudson, NH, USA), so that the final concentration of each compound was 1-fold nominal in the well.

[4] = Table 1, peak plasma concentration in men, free therapeutic Cmax
[5] = Table 2, highest plasma concentration in humans after the therapeutic dose
[6] = read-out: Area under the curve - 2D Mean
[7] = read-out: Peak amplitude - 2D Mean
[8] = read-out: Peak-to-peak interval - 2D Mean

CC(=O)Nc1ccc(O)cc1 [Acetaminophen]
Free Cmax [1, 4]: 460 nM
Free Cmax [1, 5]: 460 nM
effect on peak count within expected therapeutic exposure levels ([2]; 2D): did not significantly reduce peak count
effect on Ca2+ neuronal oscillations / peak count at 30 µM, in words ([2]; 2D, 30 µM, listed as Paracetamol): did reduce
activation at 1.11 µM [2, 6]: 23%
activation at 1.11 µM ([2]; read-out: Peak Number—2D Mean): -11.7%
activation at 1.11 µM [2, 7]: 8.8%
activation at 1.11 µM ([2]; read-out: Peak width - 2D Mean): 13%
activation at 1.11 µM [2, 8]: 34%
activation at 3.33 µM [2, 6]: 35.8%
activation at 3.33 µM ([2]; read-out: Peak Number—2D Mean): -25%
activation at 3.33 µM [2, 7]: 12.3%
activation at 3.33 µM ([2]; read-out: Peak width - 2D Mean): 34.3%
activation at 3.33 µM [2, 8]: -35.3%
activation at 10 µM [2, 6]: 13.2%
activation at 10 µM ([2]; read-out: Peak Number—2D Mean): -18.2%
activation at 10 µM [2, 7]: -0.3%
activation at 10 µM ([2]; read-out: Peak width - 2D Mean): 16.2%
activation at 10 µM [2, 8]: -14.5%
activation at 30 µM ([2]; 30 µM, read-out: Area under the curve - 2D Mean): -93.2%
activation at 30 µM ([2]; 30 µM, read-out: Peak Number—2D Mean): -94.5%
activation at 30 µM ([2]; 30 µM, read-out: Peak amplitude - 2D Mean): -89.8%
activation at 30 µM ([2]; 30 µM, read-out: Peak width - 2D Mean): -92.5%
activation at 30 µM ([2]; 30 µM, read-out: Peak-to-peak interval - 2D Mean): -100%
Area under the curve - 3D Mean ([3]; 1.11 µM): 104.3 % change from baseline
Peak Number—3D Mean ([3]; 1.11 µM): 2.2 % change from baseline
Peak amplitude - 3D Mean ([3]; 1.11 µM): 97.4 % change from baseline
Peak width - 3D Mean ([3]; 1.11 µM): 0.6 % change from baseline
Peak-to-peak interval - 3D Mean ([3]; 1.11 µM): 12.7 % change from baseline
Area under the curve - 3D Mean ([3]; 3.33 µM): 121.7 % change from baseline
Peak Number—3D Mean ([3]; 3.33 µM): −3.0 % change from baseline
Peak amplitude - 3D Mean ([3]; 3.33 µM): 106.4 % change from baseline
Peak width - 3D Mean ([3]; 3.33 µM): 5.9 % change from baseline
Peak-to-peak interval - 3D Mean ([3]; 3.33 µM): 17.4 % change from baseline
Area under the curve - 3D Mean ([3]; 10 µM): 122.4 % change from baseline
Peak Number—3D Mean ([3]; 10 µM): 12.5 % change from baseline
Peak amplitude - 3D Mean ([3]; 10 µM): 108.6 % change from baseline
Peak width - 3D Mean ([3]; 10 µM): 6.3 % change from baseline
Peak-to-peak interval - 3D Mean ([3]; 10 µM): −6.2 % change from baseline
Area under the curve - 3D Mean ([3]; 30 µM): 132.0 % change from baseline
Peak Number—3D Mean ([3]; 30 µM): 47.2 * % change from baseline
Peak amplitude - 3D Mean ([3]; 30 µM): 113.9 % change from baseline
Peak width - 3D Mean ([3]; 30 µM): 9.0 % change from baseline
Peak-to-peak interval - 3D Mean ([3]; 30 µM): −8.8 % change from baseline

CC(=O)Oc1ccccc1C(=O)O [Aspirin]
Free Cmax [1, 4]: 40 to 160 nM
Free Cmax [1, 5]: 40 to 160 nM
activation at 3.7 µM [2, 6]: 48.5%
activation at 3.7 µM ([2]; read-out: Peak Number—2D Mean): -10.2%
activation at 3.7 µM [2, 7]: 13.1%
activation at 3.7 µM ([2]; read-out: Peak width - 2D Mean): 43.6%
activation at 3.7 µM [2, 8]: 15.5%
activation at 11.11 µM [2, 6]: 25.7%
activation at 11.11 µM ([2]; read-out: Peak Number—2D Mean): 17.6%
activation at 11.11 µM [2, 7]: 4.2%
activation at 11.11 µM ([2]; read-out: Peak width - 2D Mean): 25.9%
activation at 11.11 µM [2, 8]: 1.8%
activation at 33.33 µM [2, 6]: 37.6%
activation at 33.33 µM ([2]; read-out: Peak Number—2D Mean): 10.1%
activation at 33.33 µM [2, 7]: 6.2%
activation at 33.33 µM ([2]; read-out: Peak width - 2D Mean): 38.3%
activation at 33.33 µM [2, 8]: -0.5%
activation at 100 µM [2, 6]: 30%
activation at 100 µM ([2]; read-out: Peak Number—2D Mean): 27.9%
activation at 100 µM [2, 7]: 3.9%
activation at 100 µM ([2]; read-out: Peak width - 2D Mean): 32.1%
activation at 100 µM [2, 8]: -17%
Area under the curve - 3D Mean ([3]; 3.7 µM): 139.0 % change from baseline
Peak Number—3D Mean ([3]; 3.7 µM): −0.4 % change from baseline
Peak amplitude - 3D Mean ([3]; 3.7 µM): 129.1 % change from baseline
Peak width - 3D Mean ([3]; 3.7 µM): 4.2 % change from baseline
Peak-to-peak interval - 3D Mean ([3]; 3.7 µM): 10.9 % change from baseline
Area under the curve - 3D Mean ([3]; 11.11 µM): 139.2 % change from baseline
Peak Number—3D Mean ([3]; 11.11 µM): 0.0 % change from baseline
Peak amplitude - 3D Mean ([3]; 11.11 µM): 138.1 % change from baseline
Peak width - 3D Mean ([3]; 11.11 µM): 0.3 % change from baseline
Peak-to-peak interval - 3D Mean ([3]; 11.11 µM): −2.2 % change from baseline
Area under the curve - 3D Mean ([3]; 33.33 µM): 147.8 % change from baseline
Peak Number—3D Mean ([3]; 33.33 µM): 10.0 % change from baseline
Peak amplitude - 3D Mean ([3]; 33.33 µM): 135.8 % change from baseline
Peak width - 3D Mean ([3]; 33.33 µM): 5.0 % change from baseline
Peak-to-peak interval - 3D Mean ([3]; 33.33 µM): −1.7 % change from baseline
Area under the curve - 3D Mean ([3]; 100 µM): 133.2 % change from baseline
Peak Number—3D Mean ([3]; 100 µM): −8.2 % change from baseline
Peak amplitude - 3D Mean ([3]; 100 µM): 123.5 % change from baseline
Peak width - 3D Mean ([3]; 100 µM): 4.7 % change from baseline
Peak-to-peak interval - 3D Mean ([3]; 100 µM): 6.7 % change from baseline
